Data reported in patent US20260015351A1, “METHODS AND COMPOUNDS FOR INHIBITING MKK7 ENZYMES” (AXONIS THERAPEUTICS, INC., priority 2022, published 2026).

The compounds below were run against T1, MKK7 (Homo sapiens (Human), UniProt O14733) (assay: In vitro competitive binding assay (kinase-tagged phage / qPCR)). Settings: 11-point 3-fold dilution series; Hill slope set to -1.
Method: Kinase-tagged T7 phage strains were prepared in an E. coli host derived from the BL21 strain. E. coli were grown to log-phase and infected with T7 phage and incubated with shaking at 32° C. until lysis. The lysates were centrifuged and filtered to remove cell debris. The remaining kinases were produced in HEK-293 cells and subsequently tagged with DNA for qPCR detection. Streptavidin-coated magnetic beads were treated with biotinylated small molecule ligands for 30 minutes at room temperature to generate affinity resins for kinase assays. The liganded beads were blocked with excess biotin and washed with blocking buffer (SeaBlock (Pierce), 1% BSA, 0.05% Tween 20, 1 mM DTT) to remove unbound ligand and to reduce non-specific binding. […] Kds were determined using an 11-point 3-fold compound dilution series with three DMSO control points. […] The kinase concentration in the eluates was measured by qPCR.
An 11-point 3-fold serial dilution of each test compound was prepared in 100% DMSO at 100× final test concentration and subsequently diluted to 1× in the assay (final DMSO concentration=1%). Most Kds were determined using a compound top concentration=30,000 nM. […]
Binding constants (Kds) were calculated with a standard dose-response curve using the Hill equation: […]

T1 sequence (O14733 whole entry): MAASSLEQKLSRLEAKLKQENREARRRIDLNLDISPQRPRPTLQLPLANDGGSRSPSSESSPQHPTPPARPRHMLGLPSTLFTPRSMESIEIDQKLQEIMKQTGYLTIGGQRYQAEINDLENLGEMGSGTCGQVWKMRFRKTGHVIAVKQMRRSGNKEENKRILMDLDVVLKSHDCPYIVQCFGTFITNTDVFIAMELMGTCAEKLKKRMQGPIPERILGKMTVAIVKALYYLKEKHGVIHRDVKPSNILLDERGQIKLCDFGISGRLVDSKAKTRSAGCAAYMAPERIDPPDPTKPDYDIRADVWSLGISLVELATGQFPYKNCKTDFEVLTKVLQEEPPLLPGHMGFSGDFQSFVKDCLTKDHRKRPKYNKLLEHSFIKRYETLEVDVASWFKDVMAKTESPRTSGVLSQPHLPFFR

Kd [nM]	Compound
7.8	C=CC(=O)N1CCc2ccc(-c3n[nH]c4cc(C)ccc34)cc21 [Compound 4, 1-[6-(6-methyl-1H-indazol-3-yl)-2,3-dihydroindol-1-yl]prop-2-en-1-one]
71	C=CC(=O)N1CCCc2ccc(-c3n[nH]c4cc(C)ccc34)cc21 [Compound 12, 1-[7-(6-methyl-1H-indazol-3-yl)-3,4-dihydro-2H-quinolin-1-yl]prop-2-en-1-one]

The compounds below were run against T1, MKK7 (assay: MKK7 ADP-Glo in vitro pharmacology assay). Settings: calculated from remaining activity (%).
Assay type: biochemical
Method: A study was conducted to determine the pharmacology of Compounds 1-18 in vitro in a plurality of biological matrices. Compounds 1-18 were prepared into proper concentrations of DMSO solution. The compound stock was then serially diluted into 10 concentrations by 3-fold dilution in 384 pp-plate. 5 nL of compound stock was transferred to a 384 plate. The compound stock was then diluted to 0.74 nM using a solution, which contained 0.79 mL of water, 0.2 mL of 5× Buffer, 2 μL of DTT, 6.66 μL of 7.5% BSA, and 5 μL of 10 mM ATP, to form an MKK7 mixture. The MKK7 mixture was then pre-warmed and 2.5 μL was added to each well designated for the “Test compound” and “High control” well, 2.5 μL solution 1 to each well designated for the “Low control” well. The well was incubated for 30 min and centrifuged at room temperature. Following centrifugation, 5 μL of ADD-Glo Reagent was added to each well and incubated for 60 min after centrifugation at room temperature. 10 μL of ADP-Glo Detection was then added to each well and incubated for 30 min after centrifugation in dark at room temperature. IC50 values were calculated based on the remaining activity (%) using read conversion ratio (CR).

Compound	IC50 [nM]
C=CC(=O)N1c2cc(-c3n[nH]c4ncccc34)ccc2C[C@@H]1C [Compound 15-B]	160
C=C(F)C(=O)N1CCc2ccc(-c3n[nH]c4ccccc34)cc21 [Compound 8, 2-fluoro-1-[6-(1H-indazol-3-yl)-2,3-dihydroindol-1-yl]prop-2-en-1-one]	840
C=CC(=O)N1CCc2c(-c3n[nH]c4ccccc34)cccc21 [Compound 2, 1-[4-(1H-indazol-3-yl)-2,3-dihydroindol-1-yl]prop-2-en-1-one]	92
C=CC(=O)N1CCCc2ccc(-c3n[nH]c4cnccc34)cc21 [Compound 10, 1-(7-{1H-pyrazolo[3,4-c]pyridin-3-yl}-3,4-dihydro-2H-quinolin-1-yl)prop-2-en-1-one]	550
C=CC(=O)N1c2cc(-c3n[nH]c4ncccc34)ccc2CC1C (stereo not drawn) [Compound 15, 1-[2-methyl-6-{1H-pyrazolo [3,4-b]pyridin-3-yl}-2,3-dihydroindol-1-yl]prop-2-en-1-one]	440
C/C=C/C(=O)N1CCc2ccc(-c3n[nH]c4ccccc34)cc21 [Compound 9, (2E)-1-[6-(1H-indazol-3-yl)-2,3-dihydroindol-1-yl]but-2-en-1-one]	1100
C=CC(=O)N1CCCc2ccc(-c3n[nH]c4ccncc34)cc21 [Compound 11, 1-(7-{1H-pyrazolo[4,3-c]pyridin-3-yl}-3,4-dihydro-2H-quinolin-1-yl)prop-2-en-1-one]	1400
CCOC(=O)/C=C/C(=O)N1CCc2ccc(-c3n[nH]c4ccccc34)cc21 [Compound 7, ethyl (2E)-4-[6-(1H-indazol-3-yl)-2,3-dihydroindol-1-yl]-4-oxobut-2-enoate]	3900
C=CC(=O)N1CCCc2ccc(-c3n[nH]c4cc(C)ccc34)cc21 [Compound 12, 1-[7-(6-methyl-1H-indazol-3-yl)-3,4-dihydro-2H-quinolin-1-yl]prop-2-en-1-one]	160
C=CC(=O)N1CCOc2ccc(-c3n[nH]c4ccccc34)cc21 [Compound 13, 1-[6-(1H-indazol-3-yl)-2,3-dihydro-1,4-benzoxazin-4-yl]prop-2-en-1-one]	140
CN(C)C/C=C/C(=O)N1CCc2ccc(-c3n[nH]c4ccccc34)cc21 [Compound 6, (2E)-4-(dimethylamino)-1-[6-(1H-indazol-3-yl)-2,3-dihydroindol-1-yl]but-2-en-1-one]	180

These reach a lower IC50. Values come first.

IC50 [nM]	Compound
6	C=CC(=O)N1CCc2ccc(-c3n[nH]c4cc(C#N)ccc34)cc21 [Compound 18, 3-[1-(prop-2-enoyl)-2,3-dihydroindol-6-yl]-1H-indazole-6-carbonitrile]
70	N#C/C=C/C(=O)N1CCc2ccc(-c3n[nH]c4ccccc34)cc21 [Compound 5, (2E)-4-[6-(1H-indazol-3-yl)-2,3-dihydroindol-1-yl]-4-oxobut-2-enenitrile]
23	C=CC(=O)N1CCc2ccc(-c3n[nH]c4cc(C)ccc34)cc21 [Compound 4, 1-[6-(6-methyl-1H-indazol-3-yl)-2,3-dihydroindol-1-yl]prop-2-en-1-one]
88	C=CC(=O)N1CCc2ccc(-c3n[nH]c4ncccc34)c(F)c21 [Compound 17, 1-(7-fluoro-6-{1H-pyrazolo[3,4-b]pyridin-3-yl}-2,3-dihydroindol-1-yl)prop-2-en-1-one]
4.8	C=CC(=O)N1CCc2ccc(-c3n[nH]c4cnccc34)cc21 [Compound 1, 1-(6-{1H-pyrazolo[3,4-c]pyridin-3-yl}-2,3-dihydroindol-1-yl)prop-2-en-1-one]
7.7	C=CS(=O)(=O)N1CCc2ccc(-c3n[nH]c4ncccc34)cc21 [Compound 16, 1-(ethenesulfonyl)-6-{1H-pyrazolo[3,4-b]pyridin-3-yl}-2,3-dihydroindole]
19	C=CC(=O)N1CCc2ccc(-c3n[nH]c4ccccc34)cc21 [Compound 14, 1-[6-(1H-indazol-3-yl)-2,3-dihydroindol-1-yl]prop-2-en-1-one]
30	C=CC(=O)N1CCc2ccc(-c3n[nH]c4ccncc34)cc21 [Compound 3, 1-(6-{1H-pyrazolo[4,3-c]pyridin-3-yl}-2,3-dihydroindol-1-yl)prop-2-en-1-one]
